According to patent US11773086B2, “Fungal modulators” (TRUSTEES OF BOSTON UNIVERSITY, priority 2020, dated 2023):

System: C. auris
Assay: microbe, parasite or virus in culture
Assay type: cell-based, Candida auris
Conditions: Candidozyma auris; Etest; read-out: fluconazole MIC in absence of azoffluxin
Protocol: FIGS. 2A-2E illustrate the above-described screening of the BU-CMD which identified azoffluxin as a fluconazole (FLC) potentiator against C. auris. […] Growth, as determined by optical density at 600 nm (OD600), is plotted in the presence of each CMD compound alone on the y-axis and in combination with FLC on the x-axis. Dotted lines represent 7-median absolute deviations from the median for each condition. […] FIG. 2B depicts the synergistic interactions. […] Growth was measured by the OD600 and normalized to the no drug control (see color bar). The fractional inhibitory concentration index (FICI) was calculated to determine the chemical interaction, with a value below 0.5 indicating synergy. […] FIG. 2D depicts FLC Etest strips in the presence and absence of 50 μM azoffluxin. A total of 1×10^6 C. auris cells were added to YPD agar plates, the E-test strip was added, and plates were incubated at 30° C. for 24 hours prior to imaging. FIG. 2. […] Dose-response assay where a two-fold dilution of azoffluxin was titered starting from 50 μM. Indicated titrations have a background concentration of FLC of 32 μg/mL, 4 μg/mL, 0.25 μg/mL, and 0.5 μg/mL for C. auris Ci6684 (Erg11Y132F), C. albicans (SN95), C. glabrata (BG2) or S. cerevisiae (BY4741), respectively. […] Dose response assays were incubated for 48 hours at 30° C. in RPMI. Growth in each well was plotted by the relative optical density to the respective no drug control (See color bar in FIG. 2B).
Compound potency was assessed alone by dose response assays or in combination with another compound by dose-response matrixes in 96-well plates, or 384-well, flat-bottom, microtiter plates (Corning) as previously described. Plates were incubated at 30° C. for the indicated time period. Growth was quantified by measuring OD600 and corrected for medium background. All strains were assessed in biological duplicate experiments with technical duplicates. […] For dose-response matrixes fractional inhibitory concentration index at 90% growth inhibition (FICI90) was calculated as previously described. […]

With `OC(Cn1cncn1)(Cn1cncn1)c1ccc(F)cc1F` [fluconazole, reference compound] the MIC was greater than 256 mg/L.
